Here are results for five molecules from patent publication US12282021B2, “Stratification of acute myeloid leukaemia patients for sensitivity to kinase pathway inhibitor therapy” (KINOMICA LIMITED, priority 2017, dated 2025).

This assay has as its system AML primary cells. Description: Viability assay: ex-vivo drug testing of AML primary cells with kinase inhibitors (Guava ViaCount, 72h). The format is cell-based, human. To be noted: for AML cases whose viability was reduced by >50% relative to DMSO control / number of AML cases whose viability was reduced by >50% relative to DMSO control / sensitivity of M4-Like and CDs+ cases versus M1-Like and CDs− cases (cell viability): 72h; for AML cases whose viability was reduced by >50% relative to DMSO control / number of AML cases whose viability was reduced by >50% relative to DMSO control: ex vivo; for sensitivity of M4-Like and CDs+ cases versus M1-Like and CDs− cases (cell viability): 1 μM PAKi, 10 μM FLT3/PKCi (FIG. 5A-B). The method, then:
The study was performed in 36 randomly selected primary samples of mononuclear cells extracted from the peripheral blood of AML patients at diagnosis. Experiments were performed as described below to determine the in vitro viability of the cells in response to treatment with inhibitors of the kinases FLT3/PKC (midostaurin, FLT3/PKCi), PAK (PF-3758309 PAKi), CK2 (silmitasertib CK2i) and MEK (trametinib, MEKi) The P38 inhibitor (P38i) TAK-715 was included as a negative control. Cells obtained from of 36 AML patients with well annotated clinical data were treated with these compounds for 72h.
The study was performed in 36 primary samples of mononuclear cells extracted from the peripheral blood of AML patients at diagnosis. Samples were randomly selected from the BCI tissue bank collection. Initially, 45 samples were included in the study but nine were later excluded because these were not viable in the ex-vivo experiments. Material availability allowed proteomics and mass cytometry analysis of 30 samples and DNA sequencing of 27 samples. Ex-vivo drug testing was performed in quadruplicate sampling replicates and viability values averaged and expressed relative to vehicle control.
Ex-vivo drug testing of AML primary cells was as previously described in Casado P, Rodriguez-Prados J C, Cosulich S C, et al. Kinase-substrate enrichment analysis provides insights into the heterogeneity of signaling pathway activation in leukemia cells. Sci Signal. 2013; 6(268):rs6. Briefly, cells were re-suspended in MS-5 conditioned IMDM medium, seeded in 96 well plates and treated with vehicle or 1 to 10000 nM of the indicated inhibitors for 72h. Cells were stained with Guava ViaCount reagent and cell number and viability was measured. Flow cytometry data were analyzed using CytoSoft (v2.5.7).
Mass cytometry was used to simultaneously measure the surface expression of 17 differentiation markers (CD3, CD7, CD11b, CD14, CD15, CD16, CD19, CD33, CD34, CD38, CD44, CD45, CD64, CD117, CD123, CD184, HLA-DR) in mononuclear cells extracted from the peripheral blood of 30 AML patients. Label free quantitative phosphoproteomics based on TiO2 phosphoenrichment was used to quantify>5,000 phosphorylation sites in the same AML primary samples and KSEA technology was applied to infer kinase activity from the phosphoproteomics data. Gene ontology enrichment was calculated based on the genes that code for the proteins where the phosphorylation sites were detected using DAVID software. Guava EasyCyte Flow Cytometry was used to determine cell viability after the treatment of the same patient samples with 5 kinase inhibitors (PF-3758309, Midostaurin, silmitasertib, trametinib and TAK715 aiming to target the kinases PAK, Flt-3, Casein Kinase 2, MEK and P38, respectively).

Where [1] appears, read: 15 cases positive for RAS/MEK/ERK activation.

As for `O=C(O)c1ccc2c(c1)nc(Nc1cccc(Cl)c1)c1ccncc12` [CK2i, silmitasertib], under “1 μM dose, 36 AML cases”, the “AML cases whose viability was reduced by >50% relative to DMSO control” value is 22% and the “number of AML cases whose viability was reduced by >50% relative to DMSO control” value is recorded as 8/36.

With `CCc1nc(-c2cccc(C)c2)c(-c2ccnc(NC(=O)c3ccccc3)c2)s1` [P38i, TAK-715], the “sensitivity of M4-Like and CDs+ cases versus M1-Like and CDs− cases (cell viability)” value is “no differences”. For the same molecule, under “1 μM dose, 36 AML cases”, the “AML cases whose viability was reduced by >50% relative to DMSO control” value is on record as 8% and the “number of AML cases whose viability was reduced by >50% relative to DMSO control” value was 3 AML cases.

On to `CC(=O)Nc1cccc(-n2c(=O)n(C3CC3)c(=O)c3c(Nc4ccc(I)cc4F)n(C)c(=O)c(C)c32)c1` [MEKi, trametinib], for which, where the note is “1 μM dose, 36 AML cases”, the “AML cases whose viability was reduced by >50% relative to DMSO control” value was 22% and the “number of AML cases whose viability was reduced by >50% relative to DMSO control” value was 8/36. Moreover, under setting [1], the “cases positive for RAS/MEK/ERK activation that showed high responses” value is roughly 50% and the “number of cases positive for RAS/MEK/ERK activation that showed high responses” value was 7/15.

Turning to `Cc1nc(Nc2[nH]nc3c2CN(C(=O)N[C@H](CN(C)C)c2ccccc2)C3(C)C)c2sccc2n1` [PAKi, PF-3758309], the “sensitivity of M4-Like and CDs+ cases versus M1-Like and CDs− cases (cell viability)” value was “more sensitive”. Further, for the setting “1 μM dose, 36 AML cases”, the “potency relative to the other compounds tested” value is given as “most potent of all the compounds tested”, the “AML cases whose viability was reduced by >50% relative to DMSO control” value is reported as 50% and the “number of AML cases whose viability was reduced by >50% relative to DMSO control” value is on record as 18/36.

`CO[C@@H]1[C@H](N(C)C(=O)c2ccccc2)C[C@H]2O[C@]1(C)n1c3ccccc3c3c4c(c5c6ccccc6n2c5c31)C(=O)NC4` [FLT3/PKCi, midostaurin]: the “sensitivity of M4-Like and CDs+ cases versus M1-Like and CDs− cases (cell viability)” value was “more sensitive”. Further, under “1 μM dose, 36 AML cases”, the “AML cases whose viability was reduced by >50% relative to DMSO control” value was determined as 25% and the “number of AML cases whose viability was reduced by >50% relative to DMSO control” value is given as 9/36. Moreover, for the setting “FIG. 7F and FIG. 14B”, the “effect of FLT3-ITD status on the responses of cells” value is given as “did not have an effect” and the “sensitivity of samples positive for either CDs or phosphorylation on GSK3A or PCKδ versus other cases” value was “more sensitive”.
